Test results taken from ChEMBL document CHEMBL1177720, “Selective hexapeptide agonists and antagonists for human complement C3a receptor” (J Med Chem, 2010).
Active and inactive are the calls of the source. The rule behind the calls is not given here. Peptide text beside a SMILES is read from it.

Key:
[1] = target: T1, C3a anaphylatoxin chemotactic receptor (Homo sapiens, UniProt Q16581); test: Agonist activity at human C3a receptor in human U937 cells assessed as induction of intracellular calcium release; format: functional, cell-based, U-937
T1 sequence (Q16581 whole entry): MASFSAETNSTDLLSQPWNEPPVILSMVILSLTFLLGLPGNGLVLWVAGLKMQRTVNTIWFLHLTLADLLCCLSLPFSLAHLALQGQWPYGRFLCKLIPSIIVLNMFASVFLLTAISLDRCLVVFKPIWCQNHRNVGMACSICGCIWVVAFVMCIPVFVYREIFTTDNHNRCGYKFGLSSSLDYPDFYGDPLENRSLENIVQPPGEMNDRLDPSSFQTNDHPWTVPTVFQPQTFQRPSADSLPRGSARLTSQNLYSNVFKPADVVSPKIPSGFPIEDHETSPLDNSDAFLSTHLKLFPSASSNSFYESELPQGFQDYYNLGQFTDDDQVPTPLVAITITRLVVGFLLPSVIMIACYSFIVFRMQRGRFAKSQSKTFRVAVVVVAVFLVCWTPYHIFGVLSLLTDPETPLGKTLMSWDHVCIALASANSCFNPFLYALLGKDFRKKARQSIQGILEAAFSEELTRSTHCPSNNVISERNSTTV

[2] = target: T2, C5a anaphylatoxin chemotactic receptor 1 (Homo sapiens, UniProt P21730); test: Displacement of [125I-C5a] from C5a receptor in human PBMC by scintillation counting
T2 sequence (P21730 whole entry): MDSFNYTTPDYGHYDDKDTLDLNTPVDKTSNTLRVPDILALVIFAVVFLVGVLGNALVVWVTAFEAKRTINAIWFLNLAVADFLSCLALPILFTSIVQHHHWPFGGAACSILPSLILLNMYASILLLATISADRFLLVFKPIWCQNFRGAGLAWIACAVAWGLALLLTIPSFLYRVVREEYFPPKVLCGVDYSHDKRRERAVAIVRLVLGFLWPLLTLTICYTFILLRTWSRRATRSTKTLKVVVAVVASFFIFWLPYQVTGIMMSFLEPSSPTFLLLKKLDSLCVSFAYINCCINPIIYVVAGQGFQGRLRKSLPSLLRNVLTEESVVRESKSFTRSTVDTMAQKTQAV

[3] = target: T1, C3a anaphylatoxin chemotactic receptor; test: Displacement of [125I-C3a] from C3a receptor in human PBMC by scintillation counting
[4] = target: T3, C5a anaphylatoxin chemotactic receptor 1 (Homo sapiens) (UniProt P21730); test: Displacement of […] from C5a receptor in human PBMC at 1 mM by scintillation counting
T3 sequence (whole entry): T2 sequence (P21730 whole entry)

[5] = target: T4, C3a anaphylatoxin chemotactic receptor (Homo sapiens) (UniProt Q16581); test: Displacement of [125I-C3a] from C3a receptor in human PBMC at 1 mM by scintillation counting
T4 sequence (whole entry): T1 sequence (Q16581 whole entry)

[6] = target: T4, C3a anaphylatoxin chemotactic receptor (Homo sapiens); test: Agonist activity at human C3a receptor in human U937 cells assessed as induction of intracellular calcium release at 1 mM; format: functional, cell-based; conditions: U-937
[7] = target: T4, C3a anaphylatoxin chemotactic receptor (Homo sapiens); test: Agonist activity at human C3a receptor in human U937 cells assessed as induction of intracellular calcium release at 10 uM; format: functional, cell-based; conditions: U-937

| Structure (SMILES) | EC50 ([1]; read-out: EC50) [nM] | IC50 ([3]; read-out: IC50) [nM] | Activity [4] | Activity [6] | other results |
| --- | --- | --- | --- | --- | --- |
| CC[C@H](C)[C@H](NC(=O)[C@H](C)NC(=O)[C@H](CC(N)=O)NC(=O)[C@@H](NC(=O)[C@@H](NC(=O)[C@H](CCCNC(=N)N)NC(=O)[C@H](CCCCN)NC(=O)[C@H](C)NC(=O)[C@H](CCC(=O)O)NC(=O)[C@H](Cc1ccccc1)NC(=O)[C@H](C)NC(=O)[C@@H](NC(=O)[C@@H](NC(=O)[C@@H](N)Cc1c[nH]c2ccccc12)C(C)C)[C@@H](C)O)[C@@H](C)O)[C@@H](C)CC)C(=O)N[C@@H](Cc1c[nH]c2ccccc12)C(=O)O (H-WVTAFEAKRTINAIW-OH) | 24000 | 1600 |  |  | IC50 [2]: 1700 nM |
| CSCC[C@H](NC(=O)[C@@H]1CCCN1C(=O)[C@H](CCCCN)NC(=O)[C@H](Cc1cnc[nH]1)NC(=O)[C@H](CO)NC(=O)[C@@H](N)Cc1ccc(O)cc1)C(=O)N1CCC[C@H]1C(=O)N[C@@H](CC(C)C)C(=O)N[C@H](C)C(=O)N[C@@H](CCCNC(=N)N)C(=O)O |  |  | inactive |  | Activity [5]: inactive |
| CC[C@H](C)[C@H](NC(=O)[C@@H](N)Cc1ccccc1)C(=O)N1CCC[C@H]1C(=O)N[C@@H](CC(C)C)C(=O)N[C@@H](C)C(=O)N[C@@H](CCCNC(=N)N)C(=O)O (H-FIPLAR-OH) | 950 | 0.18 | inactive |  | IC50 ([3]; read-out: pIC50 (converted)): 229 nM |
| CC(C)C[C@H](NC(=O)[C@H](C)NC(=O)[C@H](CC(C)C)NC(=O)[C@@H](N)Cc1cnc[nH]1)C(=O)N[C@@H](C)C(=O)N[C@@H](CCCNC(=N)N)C(=O)O (H-HLALAR-OH) |  | 6300 | inactive | inactive | Activity [7]: inactive |
| CC(C)C[C@H](NC(=O)[C@@H](NC(=O)[C@H](Cc1ccc(O)cc1)NC(=O)[C@@H](N)Cc1ccccc1)[C@@H](C)O)C(=O)N[C@@H](C)C(=O)N[C@@H](CCCNC(=N)N)C(=O)O (H-FYTLAR-OH) | 4800 | 166 | inactive |  |  |
| CC(C)C[C@H](NC(=O)[C@@H](NC(=O)[C@H](Cc1c[nH]c2ccccc12)NC(=O)[C@@H](N)Cc1c[nH]c2ccccc12)[C@@H](C)O)C(=O)N[C@@H](C)C(=O)N[C@@H](CCCNC(=N)N)C(=O)O (H-WWTLAR-OH) | 910 | 244 | inactive |  |  |
| CC(C)C[C@H](NC(=O)[C@@H](NC(=O)[C@H](Cc1c[nH]c2ccccc12)NC(=O)[C@@H](N)Cc1ccccc1)[C@@H](C)O)C(=O)N[C@@H](C)C(=O)N[C@@H](CCCNC(=N)N)C(=O)O (H-FWTLAR-OH) | 370 | 82 | inactive |  |  |
| CC(C)C[C@H](NC(=O)[C@@H](NC(=O)[C@H](CC(C)C)NC(=O)[C@@H](N)Cc1ccccc1)[C@@H](C)O)C(=O)N[C@@H](C)C(=O)N[C@@H](CCCNC(=N)N)C(=O)O (H-FLTLAR-OH) | 320 | 42 | inactive |  |  |
| CC(C)C[C@H](NC(=O)CNC(=O)[C@H](CC(C)C)NC(=O)[C@@H](N)Cc1cnc[nH]1)C(=O)N[C@@H](C)C(=O)N[C@@H](CCCNC(=N)N)C(=O)O (H-HLGLAR-OH) | 3800 | 5900 | inactive |  |  |
| CC(C)C[C@H](NC(=O)[C@@H]1CCCN1C(=O)[C@@H](N)Cc1ccc(O)cc1)C(=O)N1CCC[C@H]1C(=O)N[C@@H](CCCNC(=N)N)C(=O)O (H-YPLPR-OH) |  |  | inactive | inactive | Activity [5]: inactive; Activity [7]: inactive |
| CC(=O)N[C@@H](Cc1ccccc1)C(=O)N[C@H]1CCCNC(=O)[C@H](CCCN=C(N)N)NC(=O)[C@H](Cc2c[nH]c3ccccc23)NC(=O)[C@@H](CC2CCCCC2)NC(=O)[C@@H]2CCCN2C1=O |  |  |  | inactive | Activity [5]: inactive |
| CC(C)C[C@H](NC(=O)CNC(=O)[C@H](CC(C)C)NC(=O)[C@H](CCCCN)NC(=O)[C@H](CO)NC(=O)[C@H](C)NC(=O)[C@H](CCCNC(=N)N)NC(=O)[C@H](Cc1ccc(O)cc1)NC(=O)[C@H](CCCCN)NC(=O)[C@H](CCCCN)NC(=O)CNC(=O)[C@H](Cc1c[nH]c2ccccc12)NC(=O)[C@@H](N)Cc1c[nH]c2ccccc12)C(=O)N[C@@H](C)C(=O)N[C@@H](CCCNC(=N)N)C(=O)O (H-WWGKKYRASKLGLAR-OH) |  |  | inactive |  |  |
| CSCC[C@H](NC(=O)[C@H](CC(=O)O)N(C)C(=O)[C@H](CCCCN)NC(=O)[C@H](Cc1ccccc1)NC(=O)[C@H](CO)NC(=O)[C@@H](N)Cc1ccc(O)cc1)C(=O)N1CCC[C@H]1C(=O)N[C@@H](CC(C)C)C(=O)N[C@H](C)C(=O)N[C@@H](CCCNC(=N)N)C(=O)O | 1400 | 740 |  |  | IC50 [2]: 29000 nM |
| CC(C)C[C@H](NC(=O)[C@@H]1CCCN1C(=O)[C@H](CCC(=O)O)NC(=O)[C@@H](N)Cc1ccccc1)C(=O)N[C@@H](C)C(=O)N[C@@H](CCCNC(=N)N)C(=O)O (H-FEPLAR-OH) |  |  |  | inactive |  |
| CC(C)C[C@H](NC(=O)CNC(=O)[C@H](CC(C)C)NC(=O)[C@H](CCCCN)NC(=O)[C@H](CO)NC(=O)[C@H](C)NC(=O)[C@H](CCCN=C(N)N)NC(=O)[C@H](Cc1ccc(O)cc1)NC(=O)[C@H](CCCCN)NC(=O)[C@H](CCCCN)NC(=O)CNC(=O)[C@H](Cc1c[nH]c2ccccc12)NC(=O)[C@@H](N)Cc1c[nH]c2ccccc12)C(=O)N[C@@H](C)C(=O)N[C@@H](CCCN=C(N)N)C(=O)O (H-WWGKKYRASKLGLAR-OH) | 1300 | 2 |  |  |  |
| CC(C)C[C@H](NC(=O)[C@@H](N)Cc1ccccc1)C(=O)N[C@H](C(=O)N[C@@H](CO)C(=O)N[C@@H](C)C(=O)N[C@@H](CCCNC(=N)N)C(=O)O)[C@@H](C)O (H-FLTSAR-OH) |  | 8200 | inactive | inactive |  |
| C[C@H](NC(=O)[C@H](Cc1c[nH]c2ccccc12)NC(=O)[C@@H]1CCCN1C(=O)[C@H](CCCCN)NC(=O)[C@@H](N)Cc1ccccc1)C(=O)N[C@@H](CCCNC(=N)N)C(=O)O (H-FKPWAR-OH) |  |  |  | inactive |  |
| CC(C)C[C@H](NC(=O)[C@@H]1CCCN1C(=O)[C@@H](N)Cc1c[nH]c2ccccc12)C(=O)N1CCC[C@H]1C(=O)N[C@@H](CCCNC(=N)N)C(=O)O (H-WPLPR-OH) |  | 27000 | inactive | inactive | IC50 ([3]; read-out: pIC50 (converted)): 31600 nM; Activity [7]: inactive |
| CC(C)C[C@H](NC(=O)[C@@H]1CCCN1C(=O)[C@H](CCCCN)NC(=O)[C@@H](N)Cc1ccccc1)C(=O)N[C@@H](Cc1ccccc1)C(=O)N[C@@H](CCCNC(=N)N)C(=O)O (H-FKPLFR-OH) |  |  |  | inactive |  |
| CC(C)C[C@H](NC(=O)[C@H](Cc1ccccc1)NC(=O)[C@H](CCCCN)NC(=O)[C@@H](N)Cc1ccccc1)C(=O)N[C@@H](C)C(=O)N[C@@H](CCCNC(=N)N)C(=O)O (H-FKFLAR-OH) |  |  |  | inactive |  |
| CC(C)C[C@H](NC(=O)[C@H](CC(=O)O)NC(=O)[C@H](C)NC(=O)[C@H](CC(C)C)NC(=O)[C@@H](NC(=O)[C@H](CC(C)C)NC(=O)[C@@H](N)Cc1cnc[nH]1)[C@@H](C)O)C(=O)N[C@@H](CC(C)C)C(=O)N[C@@H](CS)C(=O)N[C@@H](CS)C(=O)N[C@@H](CC(C)C)C(=O)N[C@@H](CO)C(=O)N[C@@H](CC(C)C)C(=O)N1CCC[C@H]1C(=O)N[C@@H](Cc1ccccc1)C(=O)O (H-HLTLADLLCCLSLPF-OH) | 1800 | 250 |  |  | EC50 ([1]; read-out: pEC50 (converted)): 1580 nM; IC50 [2]: 560 nM |
| CC(C)C[C@H](NC(=O)CNC(=O)[C@H](CC(C)C)NC(=O)[C@@H](N)Cc1ccccc1)C(=O)N[C@@H](C)C(=O)N[C@@H](CCCNC(=N)N)C(=O)O (H-FLGLAR-OH) | 520 | 157 | inactive |  |  |
| CSCC[C@H](NC(=O)[C@@H]1CCCN1C(=O)[C@H](CCCCN)NC(=O)[C@H](Cc1ccccc1)NC(=O)[C@H](CO)NC(=O)[C@@H](N)Cc1ccc(O)cc1)C(=O)N1CCC[C@H]1C(=O)N[C@@H](CC(C)C)C(=O)N(C)[C@H](C)C(=O)N[C@@H](CCCN=C(N)N)C(=O)O | 130 | 13 |  |  | IC50 [2]: 2000 nM |
| CC(C)C[C@H](NC(=O)[C@@H]1CCCN1C(=O)[C@H](CCCCN)NC(=O)[C@@H](N)Cc1cnc[nH]1)C(=O)N[C@@H](C)C(=O)N[C@@H](CCCNC(=N)N)C(=O)O (H-HKPLAR-OH) |  |  |  | inactive |  |
| CC(C)C[C@H](NC(=O)[C@@H]1CCCN1C(=O)[C@H](Cc1c[nH]c2ccccc12)NC(=O)[C@@H](N)Cc1ccccc1)C(=O)N[C@@H](C)C(=O)N[C@@H](CCCNC(=N)N)C(=O)O (H-FWPLAR-OH) | 580 | 274 | inactive |  |  |
